Experimental data: publication PMC11315935, “Multi-layered heterochromatin interaction as a switch for DIM2-mediated DNA methylation” (Nature Communications, 2024)

Columns and labels:
DIM2 [1] = assay: In vitro DNA methylation kinetics, substrate specificity of DIM2; format: biochemical, Neurospora Crassa; parameters: unit not given here; settings: Sup Fig. 1f, 0.25 µM DIM2, 1.0 µM DNA, 1.0 µM H3K9me3 peptide, 0.5 µM HP1, pH 8.0, 30 °C
Procedure: (§1) In vitro DNA methylation assay was performed in a 20-µL reaction mixture. For the substrate specificity assay, the following DNA duplexes were used as substrates: CG DNA (Upper strand: 5’-[…]-3’), hemimethylated CG DNA (Upper strand: 5’-TAAATTTXGATTAATAAT-3’, X = 5-methylcytosine; Lower strand: 5’-[…] -3’), CHG DNA (Upper strand: 5’-[…]-3’), and CHH DNA (Upper strand: 5’-[…]-3’). The reaction mixture contains 0.25 µM DIM2, 1.0 µM DNA duplex, 1.0 µM synthesized H3K9me3 peptide (residues 1-24 of H3 plus a C-terminal tryptophan), 0.5 µM HP1, and 0.56 µM S-adenosyl-L-[methyl-^3H] methionine with a specific activity of 18 Ci/mmol (PerkinElmer) in buffer containing 50 mM Tris-HCl (pH 8.0), 100 mM NaCl, 0.05% β-mercaptoethanol, 5% glycerol, and 200 µg/mL BSA. For the rest of the DNA methylation assay, each reaction mixture contains 1.0 µM DIM2, 1.0 µM (CAT)12/(ATG)12 DNA duplex and 0.56 µM S-adenosyl-L-[methyl-^3H] methionine with a specific activity of 18 Ci/mmol (PerkinElmer) in buffer containing 50 mM Tris-HCl (pH 8.0), 100 mM NaCl, 0.05% β-mercaptoethanol, 5% glycerol, and 200 µg/mL BSA. In addition, 1.0 µM synthesized H3K9me3 or H3K9me0 peptide (residues 1-24 of H3 plus a C-terminal tryptophan) and/or 2 µM HP1 protein was included to evaluate the effect of H3 and HP1 regulation. The reaction mixture was incubated at 30 °C for 30 min, unless indicated otherwise, before being quenched by the addition of 5 µL of 10 mM cold SAM. After the reaction, 8 μL of the mixtures was loaded onto Hybond N nylon membrane (GE Healthcare), which was left to dry out at room temperature. The membrane was subsequently washed with 0.2 M ammonium bicarbonate (pH 8.2) two times (20 min per time), deionized water (20 min) once, and 95% ethanol (5 min) once. After air dried, the membrane carrying each sample was transferred into a vial containing 3 mL scintillation buffer (Fisher). The tritium scintillation was measured and recorded by a Beckman LS6500 counter. Each the reaction was repeated three times.

DIM2 [2] = assay: In vitro DNA methylation assay: effect of HP1 and H3 peptides on DIM2 activity; format: biochemical, Neurospora Crassa; parameters: DNA methylation activity of DIM2 in presence of HP1, WT or W98A: unit not given beside the values; settings: for effect on DNA methylation activity of DIM2 (in words): 36-mer DNA duplex, 1.0 µM peptide and/or 2 µM HP1; for DNA methylation activity of DIM2 in presence of HP1, WT or W98A: Sup Fig. 1e, (CTA)12/(TAG)12 DNA duplex, 1.0 µM DIM2, 2 µM HP1, 30 °C, 30 min, pH 8.0
Procedure: as §1, with “1.0 µM (CAT)12/(ATG)12 DNA duplex and 0.56 µM S-adenosyl-L-[methyl-^3H]” left out

[3] = reaction time 0 min, replicate 1
[4] = reaction time 0 min, replicate 2
[5] = reaction time 0 min, replicate 3
[6] = reaction time 15 min, replicate 1
[7] = reaction time 15 min, replicate 2
[8] = reaction time 15 min, replicate 3
[9] = reaction time 30 min, replicate 1
[10] = reaction time 30 min, replicate 2
[11] = reaction time 30 min, replicate 3

Row | Substance | DNA methylation kinetics (DIM2 [1]; [3]) | DNA methylation kinetics (DIM2 [1]; [4]) | DNA methylation kinetics (DIM2 [1]; [5]) | DNA methylation kinetics (DIM2 [1]; [6]) | DNA methylation kinetics (DIM2 [1]; [7]) | DNA methylation kinetics (DIM2 [1]; [8]) | DNA methylation kinetics (DIM2 [1]; [9]) | DNA methylation kinetics (DIM2 [1]; [10]) | DNA methylation kinetics (DIM2 [1]; [11]) | effect on DNA methylation activity of DIM2 (in words) (DIM2 [2]) | DNA methylation activity of DIM2 in presence of HP1, WT or W98A (DIM2 [2]; replicate 1) | DNA methylation activity of DIM2 in presence of HP1, WT or W98A (DIM2 [2]; replicate 2) | DNA methylation activity of DIM2 in presence of HP1, WT or W98A (DIM2 [2]; replicate 3)
1 | CG: CG DNA (Upper strand: 5’-ATTATTAATCGAAATTTA-3’) (DNA, backbone not given here; DNA duplex substrate for methylation assay) | 0.019 | 0.03 | 0.038 | 0.476 | 0.828 | 0.621 | 1.426 | 1.174 | 1.115 | – | – | – | –
2 | CHG: CHG DNA (Upper strand: 5’-ATTATTAATCTGAATTTA-3’) (DNA, backbone not given here; DNA duplex substrate for methylation assay) | 0.037 | 0.044 | 0.013 | 1.24 | 1.116 | 1.338 | 1.866 | 1.872 | 1.906 | – | – | – | –
3 | CHH: CHH DNA (Upper strand: 5’-ATTATTAATCTAAATTTA-3’) (DNA, backbone not given here; DNA duplex substrate for methylation assay) | 0.004 | 0.003 | 0.026 | 0.184 | 0.154 | 0.169 | 0.346 | 0.291 | 0.235 | – | – | – | –
4 | H3_1-24K9me0: H3K9me0 peptide (residues 1-24 of H3 plus a C-terminal tryptophan), unmethylated H3 K9 | – | – | – | – | – | – | – | – | – | failed to synergize with HP1 to boost the DNA methylation activity of DIM2 | – | – | –
5 | HP1WT: Neurospora Crassa HP1 (residues 1-266; Q1K612) | – | – | – | – | – | – | – | – | – | slight but notable activity of DIM2 | 22.922 | 23.125 | 22.99
